The results in this text go back to patent US8637525B2, “Compounds for the reduction of beta-amyloid production” (Bristol-Myers Squibb Company, priority 2009, dated 2014).

SMILES strings stand for the structures.

The first assay relates to Aβ1-42 production. The assay can be described thus: Cellular assay for inhibition of Aβ1-42 production (H4 APP751 SWE clone 8.20). It counts as cell-based. The note with it: 19 h, H4 APP751 SWE clone 8.20 cells, 19 h incubation; class symbols; read-out: Activity Rating (Aβ42 cellular IC50). An outline of the steps:
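Inhibition values are IC50s fitted to Viewlux counts after a 19 h compound exposure at 37 °C. Aβ42 was captured by the neoepitope-specific antibody 565 (0.8 ng/well) paired with N-terminal 26D6 (75 ng/well), incubated overnight at 4 °C in pH 7.4 Tris-HCl buffer containing 0.2% BSA.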
In the case of `CCNc1nc(Nc2ccc(-n3cnc(Cl)c3)c(OC)c2)nc2c1COCC2c1ccc(C#N)cc1` (centres unmarked) [Example 121A, 4-(2-(4-(4-chloro-1H-imidazol-1-yl)-3-methoxyphenylamino)-4-(ethylamino)-7,8-dihydro-5H-pyrano[4,3-d]pyrimidin-8-yl)benzonitrile], the 50% inhibitory concentration (IC50) lay in the range of 1.5 to 9.9 nM.
Regarding `COc1cc(Nc2nc3c(c(N4CC[C@H](F)C4)n2)COC3c2ccc(F)cc2)ccc1-n1cnc(Cl)c1` (single isomer, unassigned) [Example 76], the IC50 lay within 10 to 100 nM.
With `CCNc1nc(Nc2ccc(-n3cnc(Cl)c3)c(OC)c2)nc2c1CN(C(=O)C1CC1)CC2c1ccccc1` (centres unmarked) [Example 132, (2-(4-(4-chloro-1H-imidazol-1-yl)-3-methoxyphenylamino)-4-(ethylamino)-8-phenyl-7,8-dihydropyrido[4,3-d]pyrimidin-6(5H)-yl)(cyclopropyl)methanone], the IC50 lay in the range of 10 to 100 nM.
As for `CNc1nc(Nc2ccc(-n3cnc(C(F)F)c3)c(OC)c2)nc2c1CCC2c1ccc(F)cc1` (centres unmarked) [Example 208, N2-(4-(4-(difluoromethyl)-1H-imidazol-1-yl)-3-methoxyphenyl)-7-(4-fluorophenyl)-N4-methyl-6,7-dihydro-5H-cyclopenta[d]pyrimidine-2,4-diamine], the IC50 was in the range of 10 to 100 nM.
For the compound `CNc1nc(Nc2ccc(-n3cnc(C)n3)c(OC)c2)nc2c1CC[C@@H]2c1ccccc1Cl` [Example 268B, (R)—N2-(3-methoxy-4-(3-methyl-1H-1,2,4-triazol-1-yl)phenyl)-7-(2-chlorophenyl)-N4-methyl-6,7-dihydro-5H-cyclopenta[d]pyrimidine-2,4-diamine], the IC50 was 10 to 100 nM.
`COc1cc(Nc2nc3c(c(N4C[C@@H](C)O[C@@H](C)C4)n2)COC3c2ccc(F)cc2)ccc1-n1cnc(Cl)c1` (stereo partly drawn) [Example 84A, N-(4-(4-chloro-1H-imidazol-1-yl)-3-methoxyphenyl)-4-((2S,6R)-2,6-dimethylmorpholino)-7-(4-fluorophenyl)-5,7-dihydrofuro[3,4-d]pyrimidin-2-amine]: the IC50 was in the range of 10 to 100 nM.
Take `COc1cc(Nc2nc3c(c(N4CCNCC4)n2)CCC3c2ccc(F)cc2)ccc1-n1cnc(Cl)c1` (centres unmarked) [Example 31, N-(4-(4-chloro-1H-imidazol-1-yl)-3-methoxyphenyl)-7-(4-fluorophenyl)-4-(piperazin-1-yl)-6,7-dihydro-5H-cyclopenta[d]pyrimidin-2-amine]: the IC50 was 100 to 1000 nM.
For `CNc1nc(Nc2ccc(-n3cnc(Cl)c3)c(OC)c2)nc2c1CN(S(C)(=O)=O)CC2c1ccccc1` (centres unmarked) [Example 129A, N2-(4-(4-chloro-1H-imidazol-1-yl)-3-methoxyphenyl)-N4-methyl-6-(methylsulfonyl)-8-phenyl-5,6,7,8-tetrahydropyrido[4,3-d]pyrimidine-2,4-diamine], the IC50 lay in the range of 1.5 to 9.9 nM.
Regarding `CCNc1nc(Nc2ccc(-n3ncnc3C)c(F)c2)nc2c1COCC2c1ccc(C(F)(F)F)cc1` (centres unmarked) [Example 119B, N4-ethyl-N2-(3-fluoro-4-(5-methyl-1H-1,2,4-triazol-1-yl)phenyl)-8-(4-(trifluoromethyl)phenyl)-7,8-dihydro-5H-pyrano[4,3-d]pyrimidine-2,4-diamine], the half-inhibitory concentration (IC50) lay within 100 to 1000 nM.
Turning to `CCN(C)c1nc(Nc2ccc(-n3cnc(Cl)c3)c(OC)c2)nc2c1CNCC2c1ccc(F)cc1` (centres unmarked) [Example 161, N2-(4-(4-chloro-1H-imidazol-1-yl)-3-methoxyphenyl)-N4-ethyl-8-(4-fluorophenyl)-N4-methyl-5,6,7,8-tetrahydropyrido[4,3-d]pyrimidine-2,4-diamine], the half-maximal inhibitory concentration (IC50) was in the range of 100 to 1000 nM.
Still for that read-out and setting: for `CNc1nc(Nc2ccc(-n3cnc(Cl)c3)c(OC)c2)nc2c1C(=O)CC2c1ccccc1` (racemic) [Example 200, (±)-2-(4-(4-chloro-1H-imidazol-1-yl)-3-methoxyphenylamino)-4-(methylamino)-7-phenyl-6,7-dihydro-5H-cyclopenta[d]pyrimidin-5-one] the value was 10 to 100 nM.

The same assay, now with this note: 19 h, H4 APP751 SWE clone 8.20 cells, 19 h incubation; read-out: Activity Rating (Aβ42 cellular IC50), numeric value.
Take `CNc1nc(Nc2ccc(-n3cnc(Cl)c3)c(OC)c2)nc2c1COCC2c1ccc(F)cc1` (centres unmarked) [Example 60A, N2-(4-(4-chloro-1H-imidazol-1-yl)-3-methoxyphenyl)-8-(4-fluorophenyl)-N4-methyl-7,8-dihydro-5H-pyrano[4,3-d]pyrimidine-2,4-diamine]: the half-inhibitory concentration (IC50) came out at 5.6 nM.
Same read-out and setting: in the case of `CNc1nc(Nc2ccc(C#N)c(OC(F)(F)F)c2)nc2c1CCC2c1ccccc1` (centres unmarked) [Example 246, 4-(4-(methylamino)-7-phenyl-6,7-dihydro-5H-cyclopenta[d]pyrimidin-2-ylamino)-2-(trifluoromethoxy)benzonitrile] it was 31 nM; in that of `CNc1nc(Nc2ccc(F)cc2)nc2c1CCC2c1ccccc1` (centres unmarked) [Example 218, N2-(4-fluorophenyl)-N4-methyl-7-phenyl-6,7-dihydro-5H-cyclopenta[d]pyrimidine-2,4-diamine], 3700 nM.

The same assay, now with this note: H4 APP751 SWE clone 8.20 cells, 19 h incubation; class symbols; read-out: Activity Rating (Aβ42 cellular IC50).
With `CNc1nc(Nc2ccc(-n3cnc(C)n3)c(F)c2)nc2c1CN(S(=O)(=O)C1CC1)CC2c1ccccc1` (centres unmarked) [Example 141A, 6-(cyclopropylsulfonyl)-N2-(3-fluoro-4-(3-methyl-1H-1,2,4-triazol-1-yl)phenyl)-N4-methyl-8-phenyl-5,6,7,8-tetrahydropyrido[4,3-d]pyrimidine-2,4-diamine], the IC50 lay within 1.5 to 9.9 nM.
In the case of `CNc1nc(Nc2ccc(-n3cnc(Cl)c3)c(OC)c2)nc2c1COCC2c1ccc(F)c(F)c1` (centres unmarked) [Example 115A, N2-(4-(4-chloro-1H-imidazol-1-yl)-3-methoxyphenyl)-8-(3,4-difluorophenyl)-N4-methyl-7,8-dihydro-5H-pyrano[4,3-d]pyrimidine-2,4-diamine], the IC50 is 1.5 to 9.9 nM.
`CCN(C)c1nc(Nc2ccc(-n3cnc(Cl)c3)c(OC)c2)nc2c1CCCC2c1ccccc1` (single isomer, unassigned) [Example 124B, N^2-(4-(4-Chloro-1H-imidazol-1-yl)-3-methoxyphenyl)-N^4-ethyl-N^4-methyl-8-phenyl-5,6,7,8-tetrahydroquinazoline-2,4-diamine]: the IC50 is 10 to 100 nM.
On the same count and under the same terms, for `COc1cc(Nc2nc3c(c(N4CCC(O)(C(F)(F)F)C4)n2)CCC3c2ccc(F)cc2)ccc1-n1cnc(Cl)c1` (single isomer, unassigned) [Example 28A, 1-(2-(4-(4-chloro-1H-imidazol-1-yl)-3-methoxyphenylamino)-7-(4-fluorophenyl)-6,7-dihydro-5H-cyclopenta[d]pyrimidin-4-yl)-3-(trifluoromethyl)pyrrolidin-3-ol] the value was 10 to 100 nM; for `CCNc1nc(Nc2ccc(-n3cnc(Cl)c3)c(OC)c2)nc2c1CN(C(=O)COC)CC2c1ccccc1` (centres unmarked) [Example 133A, 1-(2-(4-(4-chloro-1H-imidazol-1-yl)-3-methoxyphenylamino)-4-(ethylamino)-8-phenyl-7,8-dihydropyrido[4,3-d]pyrimidin-6(5H)-yl)-2-methoxyethanone], 1.5 to 9.9 nM; for `COc1cc(Nc2nc(N[C@H](C)C3CC3)c3c(n2)C(c2ccc(C(F)(F)F)cc2)COC3)ccc1-n1cnc(Cl)c1` (stereo partly drawn) [Example 117B, N2-(4-(4-chloro-1H-imidazol-1-yl)-3-methoxyphenyl)-N4-((R)-1-cyclopropylethyl)-8-(4-(trifluoromethyl)phenyl)-7,8-dihydro-5H-pyrano[4,3-d]pyrimidine-2,4-diamine], 100 to 1000 nM.
For `CNc1nc(Nc2ccc(-n3cnc(C)n3)c(OC)c2)nc2c1CN(C)CC2c1ccc(F)cc1` (centres unmarked) [Example 198, 8-(4-fluorophenyl)-N2-(3-methoxy-4-(3-methyl-1H-1,2,4-triazol-1-yl)phenyl)-N4,6-dimethyl-5,6,7,8-tetrahydropyrido[4,3-d]pyrimidine-2,4-diamine], the IC50 lay within 10 to 100 nM.
On to `COc1cc(Nc2nc3c(c(N4CC=C(F)CC4)n2)CCC3c2ccc(F)cc2)ccc1-n1cnc(Cl)c1` (centres unmarked) [Example 40A, N-(4-(4-chloro-1H-imidazol-1-yl)-3-methoxyphenyl)-4-(4-fluoro-5,6-dihydropyridin-1(2H)-yl)-7-(4-fluorophenyl)-6,7-dihydro-5H-cyclopenta[d]pyrimidin-2-amine], for which the IC50 fell in the range of 1.5 to 9.9 nM.
Turning to `CNc1nc(Nc2ccc(-n3cnc(C)n3)c(OC)c2)nc2c1COCC2c1ccc(Cl)cc1` (single isomer, unassigned) [Example 71A, 8-(4-chlorophenyl)-N^2-(3-methoxy-4-(3-methyl-1H-1,2,4-triazol-1-yl)phenyl)-N^4-methyl-7,8-dihydro-5H-pyrano[4,3-d]pyrimidine-2,4-diamine], the IC50 is 1.5 to 9.9 nM.
The same measure, in the same setting: for `CNc1nc(Nc2ccc(-n3cnc(Cl)c3)c(OC)c2)nc2c1CCC2c1ccc(Cl)cc1` (single isomer, unassigned) [Example 94B, N^2-(4-(4-chloro-1H-imidazol-1-yl)-3-methoxyphenyl)-7-(4-chlorophenyl)-N^4-methyl-6,7-dihydro-5H-cyclopenta[d]pyrimidine-2,4-diamine] the value was 10 to 100 nM; for `CCNc1nc(Nc2ccc(-n3cnc(Cl)c3)c(OC)c2)nc2c1CCN(CC)C2c1ccc(F)cc1` (centres unmarked) [Example 169, N2-(4-(4-chloro-1H-imidazol-1-yl)-3-methoxyphenyl)-N4,7-diethyl-8-(4-fluorophenyl)-5,6,7,8-tetrahydropyrido[3,4-d]pyrimidine-2,4-diamine], 10 to 100 nM.

Still in this assay, the particulars now being: H4 APP751 SWE clone 8.20 cells, 19 h incubation; read-out: Activity Rating (Aβ42 cellular IC50), numeric value.
On to `CCNc1nc(Nc2ccc(-n3cnc(Cl)c3)c(OC)c2)nc2c1CN(CC(F)F)CC2c1ccccc1` (centres unmarked) [Example 197A, N4-ethyl-N2-(3-methoxy-4-(4-chloro-1H-13-imidazol-1-yl)phenyl)-8-phenyl-6-(2,2-difluoroethyl)-5,6,7,8-tetrahydropyrido[4,3-d]pyrimidine-2,4-diamine], for which the IC50 came to 60 nM.

As usually defined, the IC50 is the concentration that inhibits the measured activity by half.
